Broadly, the Ki is the equilibrium dissociation constant of an inhibitor or competing ligand from its target.

In the assay the target is human recombinant GABAA α5β3γ2 receptor (Homo sapiens (Human), UniProt P18507+P31644). The assay can be described thus: Binding assay, [3H]Ro151788 displacement on membranes of HEK cells. The conditions noted are these: 0.5 nM [3H]Ro151788, 60 minutes at 4° C., Cheng-Prusoff; read-out: hGABAA α5 Ki. Here is the method: The GABAA α5β3γ2 protein used for the receptor binding assay was derived from membranes produced from HEK cells (Millipore CYL3073) expressing the human recombinant GABAA α5β3γ2 receptor. Cells were stored and cultured in-house according to the instructions provided by the vendor (Millipor). Cell pellet was homogenized in 10 times modified Krebs Henseleit buffer (membrane preparation buffer): 20 mM Tris, 120 mM NaCl, 100 mM KCl, 25 mM CaCl2) and 25 mM MgCl2 pH=7.4 at 4° C. using Ultra Turrax (Janke&Kunkel) maximal speed for 15 seconds. The homogenate was centrifuged at 40,000 g for 30 minutes at 4° C. Supernatant was discarded and the resulting pellet was washed in membrane preparation buffer. Pellet was resuspended in membrane preparation buffer and aliquots of 1.4 mL ampulles were stored at −70° C. until use.
human recombinant GABAA α5β3γ2 receptor, sequence (P31644 32-462): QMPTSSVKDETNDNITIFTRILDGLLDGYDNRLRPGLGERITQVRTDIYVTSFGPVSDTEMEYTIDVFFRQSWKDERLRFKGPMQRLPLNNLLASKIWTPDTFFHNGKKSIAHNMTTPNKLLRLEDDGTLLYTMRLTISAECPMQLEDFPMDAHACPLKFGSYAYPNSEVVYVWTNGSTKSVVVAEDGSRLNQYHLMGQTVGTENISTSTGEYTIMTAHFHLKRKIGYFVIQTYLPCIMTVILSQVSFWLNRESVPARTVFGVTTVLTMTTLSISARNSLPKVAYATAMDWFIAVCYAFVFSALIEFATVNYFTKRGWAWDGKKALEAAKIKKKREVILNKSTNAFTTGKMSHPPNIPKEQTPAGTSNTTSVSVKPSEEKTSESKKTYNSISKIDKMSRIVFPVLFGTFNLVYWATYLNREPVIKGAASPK
human recombinant GABAA α5β3γ2 receptor, sequence (P28472 26-473 partner): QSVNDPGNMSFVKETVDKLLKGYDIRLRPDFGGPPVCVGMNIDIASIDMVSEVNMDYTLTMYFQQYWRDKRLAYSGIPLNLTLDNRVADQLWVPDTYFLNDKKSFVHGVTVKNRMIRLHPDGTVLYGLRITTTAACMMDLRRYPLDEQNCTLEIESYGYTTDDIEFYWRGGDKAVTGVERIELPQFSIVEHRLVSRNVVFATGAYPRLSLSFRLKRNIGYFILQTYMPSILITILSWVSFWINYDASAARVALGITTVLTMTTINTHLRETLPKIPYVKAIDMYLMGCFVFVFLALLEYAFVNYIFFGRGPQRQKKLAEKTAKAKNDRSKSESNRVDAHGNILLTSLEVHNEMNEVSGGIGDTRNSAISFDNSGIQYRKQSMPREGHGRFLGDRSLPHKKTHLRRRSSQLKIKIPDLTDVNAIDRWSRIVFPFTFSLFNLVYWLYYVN
human recombinant GABAA α5β3γ2 receptor, sequence (P18507 40-475): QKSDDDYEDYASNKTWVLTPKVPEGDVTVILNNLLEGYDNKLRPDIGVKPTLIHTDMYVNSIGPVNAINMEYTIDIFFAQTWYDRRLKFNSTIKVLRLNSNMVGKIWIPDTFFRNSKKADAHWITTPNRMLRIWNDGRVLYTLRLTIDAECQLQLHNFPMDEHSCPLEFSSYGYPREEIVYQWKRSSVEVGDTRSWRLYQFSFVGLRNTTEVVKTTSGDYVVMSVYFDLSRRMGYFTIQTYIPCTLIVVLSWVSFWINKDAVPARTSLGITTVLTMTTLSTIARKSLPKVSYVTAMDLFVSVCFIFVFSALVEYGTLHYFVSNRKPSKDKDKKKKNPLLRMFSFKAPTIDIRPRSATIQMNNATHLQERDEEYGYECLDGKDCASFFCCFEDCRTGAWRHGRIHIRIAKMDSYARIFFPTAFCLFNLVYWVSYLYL
Receptor binding assays were performed in 96-well format in deep-well plates. For each 96-well plate one ampulle of membrane homogenate was thawed and diluted in binding buffer (50 mM Tris pH=7.4, 100 mM KCl) and 200 μL was dispensed into each well. Radioligand [^3H]Ro151788 (Perkin Elmer: NET757250UC) was prepared in binding buffer and added to each well in 50 μL volume to give final concentration of 0.5 nM. Test compounds in suitable concentration(s) were added in additional 50 μL. The final assay volume was 300 μL. Incubation was carried out for 60 minutes at 4° C. For non-specific binding 10 μM unlabeled diazepam was used. After incubation samples were filtered over UniFilter® GF/B™ using Filtermate Harvester (Perkin Elmer) and washed with 5×1 mL binding buffer. The plate was dried at 40° C. for an hour and 40 μL Microscint (Perkin Elmer) scintillation cocktail was added to each well. The plate was read in Microbeta (Perkin Elmer).
The specific radioligand binding (SB) was defined as the difference between total binding (Tot) and the non-specific binding (NSB). Results are expressed as a percent inhibition of specific binding obtained in the presence of compound of interest.
For IC50 and Ki determination a minimum of six drug concentrations in triplicate were used. […] Ki values (i.e. inhibition constants) were calculated using the Cheng-Prusoff equation Ki=IC50/[1+(L/KD)], where [L] is the radioligand concentration and KD the affinity of the labelled ligand for receptor. KD was determined from the Saturation analyses.

As to `CC(=O)N1CCc2nc(OCc3c(C)nnn3-c3ccc(Cl)cc3)ccc2C1` [Example 36, 1-(2-{[1-(4-chlorophenyl)-4-methyl-1H-1,2,3-triazol-5-yl]methoxy}-5,6,7,8-tetrahydro-1,6-naphthyridin-6-yl)ethan-1-one], the Ki was found to be 9.8 nM.
The result for `Cc1nnn(-c2ccc(F)cc2)c1COc1ccc2c(n1)CCN(C(=O)C1CCCOC1)C2` (stereo not drawn) [Example 30, 2-{[1-(4-fluorophenyl)-4-methyl-1H-1,2,3-triazol-5-yl]methoxy}-6-(oxane-3-carbonyl)-5,6,7,8-tetrahydro-1,6-naphthyridine] reads 82 nM; that for `Cc1nnn(-c2ccc(F)cc2)c1COc1ccc2c(n1)CCN(C(=O)[C@H]1CCC(=O)N1C)C2` [Example 41, (5R)-5-(2-{[1-(4-fluorophenyl)-4-methyl-1H-1,2,3-triazol-5-yl]methoxy}-5,6,7,8-tetrahydro-1,6-naphthyridine-6-carbonyl)-1-methylpyrrolidin-2-one], 67 nM; that for `Cn1nnc(-c2ccc(F)cc2)c1COc1ccc2c(n1)CN(C(=O)C1CCCOC1)C2` (stereo not drawn) [Example 74, 4-(4-fluorophenyl)-1-methyl-5-({[6-(oxane-3-carbonyl)-5H,6H,7H-pyrrolo[3,4-b]pyridin-2-yl]oxy}methyl)-1H-1,2,3-triazole], 46 nM.
The result for `CCC(=O)N1Cc2ccc(OCc3c(-c4ccc(F)cc4)nnn3C)nc2C1` [Example 69, 1-(2-{[4-(4-fluorophenyl)-1-methyl-1H-1,2,3-triazol-5-yl]methoxy}-5,7-dihydro-6H-pyrrolo[3,4-b]pyridin-6-yl)propan-1-one] reads 25 nM; that for `CC(=O)N1CCc2nc(OCc3c(-c4ccc(F)cc4)noc3C)ccc2C1` [Example 1, 1-[2-{[3-(4-fluorophenyl)-5-methyl-1,2-oxazol-4-yl]methoxy}-7,8-dihydro-1,6-naphthyridin-6(5H)-yl]ethanone], 2.8 nM; that for `Cc1onc(-c2ccc(F)cc2)c1COc1ccc2c(n1)CCN(C(=O)C(F)(F)F)C2` [Example 12, 2,2,2-trifluoro-1-(2-{[3-(4-fluorophenyl)-5-methyl-1,2-oxazol-4-yl]methoxy}-5,6,7,8-tetrahydro-1,6-naphthyridin-6-yl)ethan-1-one], 14 nM.
With `CCC(=O)N1Cc2ccc(OCc3c(C)nnn3-c3ccc(F)cc3)nc2C1` [Example 52, 1-(2-{[1-(4-fluorophenyl)-4-methyl-1H-1,2,3-triazol-5-yl]methoxy}-5,7-dihydro-6H-pyrrolo[3,4-b]pyridin-6-yl)propan-1-one], the Ki came out at 37 nM.
For `Cc1nnn(-c2ccc(F)cc2)c1COc1ccc2c(n1)CCN(C(=O)N(C)C)C2` [Example 76, 2-{[1-(4-fluorophenyl)-4-methyl-1H-1,2,3-triazol-5-yl]methoxy}-N,N-dimethyl-5,6,7,8-tetrahydro-1,6-naphthyridine-6-carboxamide] the value was 30 nM; for `Cc1nnn(-c2ccc(F)cc2)c1COc1ccc2c(n1)CN(C(=O)C(C)(C)C)C2` [Example 59, 1-(2-{[1-(4-fluorophenyl)-4-methyl-1H-1,2,3-triazol-5-yl]methoxy}-5H,6H,7H-pyrrolo[3,4-b]pyridin-6-yl)-2,2-dimethylpropan-1-one], 31 nM; for `Cc1nnn(-c2ccc(F)cc2)c1COc1ccc2c(n1)CN(C(=O)C1CCCOC1)C2` (stereo not drawn) [Example 63, 1-(4-fluorophenyl)-4-methyl-5-({[6-(oxane-3-carbonyl)-5H,6H,7H-pyrrolo[3,4-b]pyridin-2-yl]oxy}methyl)-1H-1,2,3-triazole], 9.5 nM.
For the molecule `Cc1cc(C(=O)N2CCc3nc(OCc4c(-c5ccc(F)cc5)noc4C)ccc3C2)no1` [Example 10, 2-{[3-(4-fluorophenyl)-5-methyl-1,2-oxazol-4-yl]methoxy}-6-(5-methyl-1,2-oxazole-3-carbonyl)-5,6,7,8-tetrahydro-1,6-naphthyridine], the Ki was determined as 21 nM.
